Laboratory results from patent publication EP1268487B1, “TRICYCLIC PROTEIN KINASE INHIBITORS” (Wyeth, priority 2000, dated 2001).
≈ marks a conversion by molar mass, not a printed value. Blank lines part the entries; values can stand above or below the compound they belong to.

Assays:
c-Met = molecular target: T1, c-Met (Homo sapiens, UniProt P08581); experiment: DELFIA assay for c-Met receptor kinase inhibitors; type: biochemical
T1 construct: The cytoplasmic domain of c-Met was generated by reverse transcriptase-polymerase chain reaction; His tag (from pFastBac-HTc vector; purified on Ni-NTA/Talon); made in house; host or cells: Sf9 insect cells (baculovirus)
Protocol: The c-Met kinase assay was performed as a DELFIA (dissociation enchanced lanthanide fluorometric immunoassay), an ELISA-like protocol based upon time-resolved fluorometry as described previously [Braunwalder, A. F., Yarwood, D.R., Sills, M.A., and Lipson, K.E., Anal. Biochem. 238, 159-164 (1996)]. The protocol was adopted for the screening of inhibitors of the kinase activity of recombinant c-Met. [Loganzo, F., and. Hardy, C., American Biotechnology Laboratory 16(13), 26-28 (1998)]. The cytoplasmic domain of c-Met was generated by reverse transcriptase-polymerase chain reaction using RNA isolated from human mammary epithelial cells as template, cloned into the pFastBac-HTc vector (Life Technologies) and protein expressed in Sf9 insect cells by baculovirus infection. Protein was purified by imidazole elution from Ni-NTA resin (Invitrogen, Carlsbad, CA) or Talon resin (Clontech, Palo Alto, CA). Various conditions were evaluated for the kinase screening protocol and screening was accomplished with the following method. Polystyrene Maxisorp plates (Nunc) were pre-coated for 1 hour to overnight at room temperature with 5 µg/ml poly(Glu4-Tyr) diluted in Tris-buffered saline (TBS). Plates were washed 3X with TBS. c-Met protein preparation was diluted 1:80 into 0.1% BSA/ 4 mM HEPES. A master mix was prepared consisting of: 1 volume of diluted c-Met, 1 volume of 5X buffer (20 mM HEPES, pH 7.4; 2 mM MnCl2; 100 µM Na3VO4; 1 mM DTT), 0.9 volume of water. Master mix (29 µl) was added to the wells of peptide-coated microtiter plates. For assays where c-Met autophosphorylation was evaluated, plates were uncoated and c-Met was diluted into 4 mM HEPES at 1:40 without BSA. Compounds (1 µl) at various dilutions (1 mM to 0.1 µM) prepared in DMSO were added and mixed well with an automatic piptettor. After incubation 20 minutes at room temperature, the reaction was initiated with 20 µl of 62.5 µM ATP/ 50 mM MgCl2 (final 25 µM ATP/ 20 mM MgCl2 in assay). Reactions were incubated 45 minutes at room temperature. Plates were then washed 3X with 100 µl each of DELFIA wash buffer (Wallac). Antibody binding was performed by adding 75 µl of Europium-conjugated anti-phosphotyrosine diluted 1:2000 in Assay Buffer (Wallac) for 1 hour at room temperature. Plates were washed 3X with DELFIA wash buffer. Detection was done by addition of 100 µl of Enhancement Solution (Wallac). After 30 minutes, plates were read in a Wallac VICTOR-2 time-resolved fluorometer. Inhibition data was reported as europium counts for compound treated wells normalized to control counts. IC50 values were obtained by using log doses of compound and calculated using Data Analysis Toolbox software, version 1.0.2 (MDL Information Systems, Inc.).

[1] = molecular target: T2, Epidermal Growth Factor Receptor Kinase (EGF-R) (Homo sapiens, UniProt P00533); experiment: Inhibition of Epidermal Growth Factor Receptor Kinase (EGF-R) using recombinant enzyme; type: biochemical; details: for inhibition at 0.5 µM: 0.5 µM concentration of test compound; for IC50: recombinant enzyme
T2 construct: containing the EGFR cDNA encoding amino acids 645 - 1186 preceded by Met-Ala-(His)6; Met-Ala-(His)6 (N); made in house; host or cells: Sf9 insect cells (baculovirus vHcEGFR52)
Protocol: Representative test compounds were evaluated for their ability to inhibit the phosphorylation of the tyrosine residue of a peptide substrate catalyzed by the enzyme epidermal growth factor receptor kinase. The peptide substrate (RR-SRC) has the sequence arg-arg-leu-ile-glu-asp-ala-glu-tyr-ala-ala-arg-gly. The enzyme used in this assay is the His-tagged cytoplasmic domain of EGFR. A recombinant baculovirus (vHcEGFR52) was constructed containing the EGFR cDNA encoding amino acids 645 - 1186 preceded by Met-Ala-(His)6. Sf9 cells in 100 mm plates were infected at an moi of 10 pfu/cell and cells were harvested 48 hours post infection. A cytoplasmic extract was prepared using 1% Triton X-100 and applied to Ni-NTA column. After washing the column with 20 mM imidazole, HcEGFR was eluted with 250 mM imidazole (in 50 mM Na2HPO4, pH 8.0, 300 mM NaCl). Fractions collected were dialyzed against 10 mM HEPES, pH 7.0, 50 mM NaCl, 10% glycerol, 1µg/mL antipain and leupeptin and 0.1 mM Pefabloc SC. The protein was frozen in dry ice/methanol and stored -70° C.
Test compounds were made into 10 mg/mL stock solutions in 100% dimethylsulfoxide (DMSO). Prior to experiment, stock solutions were diluted to 500 µM with 100% DMSO and then serially diluted to the desired concentration with HEPES buffer (30 mM HEPES pH 7.4).
For the enzyme reaction, 10 µL of each inhibitor (at various concentrations) were added to each well of a 96-well plate. To this was added 3 µL of enzyme (1:10 dilution in 10mM HEPES, pH 7.4 for final conc. of 1:120). This was allowed to sit for 10 minutes on ice and was followed by the addition of 5 µl peptide (80 uM final conc.), 10µl of 4X Buffer (Table A), 0.25 µL ^33P-ATP and 12 µL H2O. The reaction was allowed to run for 90 minutes at room temperature and was followed by spotting the entire volume on to precut P81 filter papers. The filter discs were washed 2X with 0.5% phosphoric acid and radioactivity was measured using a liquid scintillation counter. Table A
The inhibition data for representative compounds of the invention are shown below in TABLE 1. The IC50 is the concentration of test compound needed to reduce the total amount of phosphorylated substrate by 50%. The % inhibition of the test compound was determined for at least three different concentrations and the IC50 value was evaluated from the dose response curve. […] CPM(control) is in units of counts per minute and was a number expressing the amount of radiolabeled ATP (γ-^33P) incorporated into the RR-SRC peptide substrate by the enzyme after 90 minutes at room temperature in the absence of test compound as measured by liquid scintillation counting. The CPM values were corrected for the background counts produced by ATP in the absence of the enzymatic reaction. Where it was possible to determine an IC50 value, this is reported in TABLE 1 otherwise the % inhibition at 0.5 µM concentration of test compound is shown in TABLE 1.

A431 = experiment: Inhibition of cancer cell growth as measured by cell number (Sulforhodamine B); type: cell-based; details: Homo sapiens, A-431; 48 hours exposure
Protocol: (§1) Human tumor cell lines were plated in 96-well plates (250 µl/well, 1-6 x 10^4 cells/ml) in RPMI 1640 medium, containing 5% FBS (Fetal Bovine Serum). […] After 48 hours exposure to test compounds, cells were fixed with trichloroacetic acid, and stained with Sulforhodamine B. After washing with trichloroacetic acid, bound dye was solubilized in 10 mM Tris base and optical density was determined using a plate reader. Under conditions of the assay the optical density is proportional to the number of cells in the well. IC50s (concentrations causing 50% inhibition of cell growth) were determined from the growth inhibition plots. The test procedure is described in details by Philip Skehan et. al, J.Natl. Canc. Inst., 82, 1107-1112 (1990). […] Information about some of the cell lines used in these test procedures is available from the American Type Tissue Collection: Cell Lines and Hybridomas, 1994 Reference Guide, 8th Edition. The Her2Neu cell line is a 3T3 line that has been transfected with Her2 receptor kinase.

3T3 = experiment: as above; type: cell-based; details: Mus musculus, NIH3T3; 48 hours exposure
Protocol: as §1

Her2Neu = experiment: as above; type: cell-based; details: 48 hours exposure; 3T3 line transfected with Her2 receptor kinase
Protocol: as §1

SW620 = experiment: as above; type: cell-based; details: Homo sapiens, SW-620; 48 hours exposure
Protocol: as §1

MDA435 = experiment: as above; type: cell-based; details: Homo sapiens, 48 hours exposure
Protocol: as §1

SKBR3 = experiment: as above; type: cell-based; details: Homo sapiens, SK-BR-3; 48 hours exposure
Protocol: as §1

[2] = test system: Human Epidermoid Tumors (A431); experiment: In vivo inhibition of the growth of human epidermoid tumors (A431); set-up: species or system BALB/c nu/nu female mice; details: for %T/C / RTG Day 7 / RTG Day 14 / RTG Day 21: days 1 through 10; for S/T: # of Survivors/# of Treated on Day +21
Protocol: BALB/c nu/nu female mice (Charles River, Wilmington, MA) were used in the in vivo standard pharmacological test procedures. Human epidermoid carcinoma cells A-431 (American Type Culture Collection, Rockville, Maryland # CRL-155) were grown in vitro as described above. A unit of 5 X 10^6 cells were injected subcutaneously into mice. When tumors attained a mass of between 100 and 150 mg, the mice were randomized into treatment groups (day zero). Mice were treated orally (PO) once a day on days 1 through 10 post staging with doses of either 40, 20, 10, 3 or 1 mg/kg/dose of the compound to be evaluated in 0.2% Klucel. Control animals received no drug. Tumor mass was determined every 7 days [(length X width^2)/2] for 28 days post staging. Relative tumor growth (Mean tumor mass on day 7, 14, and 21 divided by the mean tumor mass on day zero) is determined for each treatment group. The %T/C (Tumor/Control) is determined by dividing the relative tumor growth of the treated group by the relative tumor growth of the placebo group and multiplying by 100. A compound is considered to be active if the %T/C is found to be […].

T2 sequence (P00533 669-1210): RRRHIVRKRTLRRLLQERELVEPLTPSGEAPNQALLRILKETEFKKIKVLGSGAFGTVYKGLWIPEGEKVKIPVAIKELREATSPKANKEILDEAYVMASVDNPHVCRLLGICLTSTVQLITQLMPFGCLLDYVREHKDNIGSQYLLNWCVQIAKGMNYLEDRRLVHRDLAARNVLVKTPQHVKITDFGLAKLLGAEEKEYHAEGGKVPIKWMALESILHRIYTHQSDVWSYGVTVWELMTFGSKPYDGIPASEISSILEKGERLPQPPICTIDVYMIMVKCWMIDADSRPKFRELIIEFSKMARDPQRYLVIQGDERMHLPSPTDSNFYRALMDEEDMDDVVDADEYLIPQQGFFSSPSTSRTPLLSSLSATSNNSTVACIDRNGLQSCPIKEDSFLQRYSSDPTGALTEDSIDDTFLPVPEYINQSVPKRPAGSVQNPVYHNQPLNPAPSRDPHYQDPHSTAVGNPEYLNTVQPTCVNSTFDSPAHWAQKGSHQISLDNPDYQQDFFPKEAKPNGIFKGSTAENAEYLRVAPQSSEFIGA
T1 sequence (P08581 956-1390 limits assumed): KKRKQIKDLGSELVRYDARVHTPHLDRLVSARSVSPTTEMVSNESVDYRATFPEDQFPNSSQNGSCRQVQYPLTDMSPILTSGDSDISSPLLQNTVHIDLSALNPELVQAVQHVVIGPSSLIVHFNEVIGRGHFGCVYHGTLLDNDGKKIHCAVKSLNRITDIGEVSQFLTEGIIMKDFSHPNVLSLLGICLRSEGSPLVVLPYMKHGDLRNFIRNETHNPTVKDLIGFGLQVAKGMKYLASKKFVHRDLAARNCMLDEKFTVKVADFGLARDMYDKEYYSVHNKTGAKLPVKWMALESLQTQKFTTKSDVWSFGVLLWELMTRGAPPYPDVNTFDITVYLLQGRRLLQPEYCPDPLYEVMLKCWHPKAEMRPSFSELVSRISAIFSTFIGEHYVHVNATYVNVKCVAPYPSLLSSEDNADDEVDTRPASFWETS

inhibition at 10 µg/mL (c-Met): 42%
inhibition at 0.5 µM [1]: 73%
IC50 [1]: 1 nM
IC50 (A431): 1.9 µg/mL (≈ 4.27 µM)
IC50 (Her2Neu): > 5 µg/mL
IC50 (SW620): > 5 µg/mL
IC50 (MDA435): > 5 µg/mL
IC50 (SKBR3): 2.53 µg/mL (≈ 5.68 µM)
Structure (SMILES): N#Cc1cnc2cc3c(cc2c1Nc1ccc(F)c(Cl)c1)N(CCCCCl)CCO3 [Example 11, 1-(4-Chlorobutyl)-9-(3-chloro-4-fluoroanilino)-2,3-dihydro-1H-[1,4]oxazino[3,2-g]quinoline-8-carbonitrile]
IC50 (3T3): 3.89 µg/mL (≈ 8.74 µM)

inhibition at 0.5 µM [1]: 56.5%
IC50 [1]: 170 nM
IC50 (A431): 0.108 µg/mL (≈ 0.232 µM)
IC50 (Her2Neu): 0.15 µg/mL (≈ 0.323 µM)
IC50 (SW620): 0.165 µg/mL (≈ 0.354 µM)
IC50 (MDA435): 0.24 µg/mL (≈ 0.515 µM)
Structure (SMILES): CN(C)C/C=C/C(=O)N1CCOc2cc3ncc(C#N)c(Nc4ccc(F)c(Cl)c4)c3cc21 [Example 9, 9-(3-Chloro-4-fluoroanilino)-1-[(2E)-4-(dimethylamino)-2-butenoyl]-2,3-dihydro-1H-[1,4]oxazino[3,2-g]quinoline-8-carbonitrile]
%T/C ([2]; 1 mg/kg/dose PO, Day 7): 103%
RTG Day 7 ([2]; 1 mg/kg/dose PO, Day 7): 4.66
%T/C ([2]; 1 mg/kg/dose PO, Day 14): 73%
RTG Day 14 ([2]; 1 mg/kg/dose PO, Day 14): 8.11
%T/C ([2]; 1 mg/kg/dose PO, Day 21): 76%
RTG Day 21 ([2]; 1 mg/kg/dose PO, Day 21): 13.23
S/T ([2]; 1 mg/kg/dose PO): 5/5
%T/C ([2]; 3 mg/kg/dose PO, Day 7): 104%
RTG Day 7 ([2]; 3 mg/kg/dose PO, Day 7): 4.76
%T/C ([2]; 3 mg/kg/dose PO, Day 14): 107%
RTG Day 14 ([2]; 3 mg/kg/dose PO, Day 14): 11.79
%T/C ([2]; 3 mg/kg/dose PO, Day 21): 137%
RTG Day 21 ([2]; 3 mg/kg/dose PO, Day 21): 23.77
S/T ([2]; 3 mg/kg/dose PO): 5/5
%T/C ([2]; 10 mg/kg/dose PO, Day 7): 105%
RTG Day 7 ([2]; 10 mg/kg/dose PO, Day 7): 4.81
%T/C ([2]; 10 mg/kg/dose PO, Day 14): 87%
RTG Day 14 ([2]; 10 mg/kg/dose PO, Day 14): 9.66
%T/C ([2]; 10 mg/kg/dose PO, Day 21): 64%
RTG Day 21 ([2]; 10 mg/kg/dose PO, Day 21): 11.49
S/T ([2]; 10 mg/kg/dose PO): 5/5
%T/C ([2]; 20 mg/kg/dose PO, Day 7): 118%
RTG Day 7 ([2]; 20 mg/kg/dose PO, Day 7): 5.40
%T/C ([2]; 20 mg/kg/dose PO, Day 14): 96%
RTG Day 14 ([2]; 20 mg/kg/dose PO, Day 14): 10.56
%T/C ([2]; 20 mg/kg/dose PO, Day 21): 84%
RTG Day 21 ([2]; 20 mg/kg/dose PO, Day 21): 14.56
S/T ([2]; 20 mg/kg/dose PO): 5/5
%T/C ([2]; 40 mg/kg/dose PO, Day 7): 75%
RTG Day 7 ([2]; 40 mg/kg/dose PO, Day 7): 3.40
%T/C ([2]; 40 mg/kg/dose PO, Day 14): 53%
RTG Day 14 ([2]; 40 mg/kg/dose PO, Day 14): 5.93
%T/C ([2]; 40 mg/kg/dose PO, Day 21): 41%
RTG Day 21 ([2]; 40 mg/kg/dose PO, Day 21): 7.15
S/T ([2]; 40 mg/kg/dose PO): 5/5
inhibition of tumor growth in vivo ([2]; summary statement in words): effective inhibitor of tumor growth in vivo
IC50 (3T3): 0.169 µg/mL (≈ 0.364 µM)
